Laboratory results published in ChEMBL document CHEMBL4715685, “Synthetic inhibitor leads of human tropomyosin receptor kinase A (hTrkA)” (RSC Med Chem, 2020).
In brackets after ≈: the same amount, converted by molar mass.

Assays:
[1] = biological target: T1, High affinity nerve growth factor receptor (Homo sapiens, UniProt P04629)
Description: Inhibition of human TRKA at inactive state assessed as inhibition of substrate phosphorylation using fluorescently-labelled peptide as substrate by caliper assay

[2] = biological target: T1, High affinity nerve growth factor receptor; remark: listed apart in the source
Description: Inhibition of human TRKA at active state assessed as inhibition of substrate phosphorylation using fluorescently-labelled peptide as substrate by caliper assay

[3] = biological target: T1, High affinity nerve growth factor receptor; remark: listed apart in the source
Description: Inhibition of human TRKA kinase domain by HTRF KinEASE biochemical assay

[4] = biological target: T1, High affinity nerve growth factor receptor; remark: listed apart in the source
Description: Inhibition of human TRKA by FLIPR assay

[5] = biological target: BDNF/NT-3 growth factors receptor (Homo sapiens, UniProt Q16620)
Description: Inhibition of human TRKB by FLIPR assay

in vitro [6] = details: dog, liver microsomes
Description: Half-life in dog liver microsome

in vitro [7] = details: cat, liver microsomes
Description: Half-life in cat liver microsome

in vitro [8] = details: dog, MDCK
Description: Permeability from apical to basolateral side in dog MDCK cells

in vitro [9] = details: dog, MDCK-MDR1
Description: Permeability from basolateral to apical side in dog MDCK cells

[10] = biological target: T1, High affinity nerve growth factor receptor; remark: listed apart in the source
Description: Inhibition of human TRKA at inactive state by kinetic based analysis

[11] = biological target: T1, High affinity nerve growth factor receptor; remark: listed apart in the source
Description: Inhibition of human TRKA at active state by kinetic based analysis

Chain of BDNF/NT-3 growth factors receptor (Q16620 whole entry): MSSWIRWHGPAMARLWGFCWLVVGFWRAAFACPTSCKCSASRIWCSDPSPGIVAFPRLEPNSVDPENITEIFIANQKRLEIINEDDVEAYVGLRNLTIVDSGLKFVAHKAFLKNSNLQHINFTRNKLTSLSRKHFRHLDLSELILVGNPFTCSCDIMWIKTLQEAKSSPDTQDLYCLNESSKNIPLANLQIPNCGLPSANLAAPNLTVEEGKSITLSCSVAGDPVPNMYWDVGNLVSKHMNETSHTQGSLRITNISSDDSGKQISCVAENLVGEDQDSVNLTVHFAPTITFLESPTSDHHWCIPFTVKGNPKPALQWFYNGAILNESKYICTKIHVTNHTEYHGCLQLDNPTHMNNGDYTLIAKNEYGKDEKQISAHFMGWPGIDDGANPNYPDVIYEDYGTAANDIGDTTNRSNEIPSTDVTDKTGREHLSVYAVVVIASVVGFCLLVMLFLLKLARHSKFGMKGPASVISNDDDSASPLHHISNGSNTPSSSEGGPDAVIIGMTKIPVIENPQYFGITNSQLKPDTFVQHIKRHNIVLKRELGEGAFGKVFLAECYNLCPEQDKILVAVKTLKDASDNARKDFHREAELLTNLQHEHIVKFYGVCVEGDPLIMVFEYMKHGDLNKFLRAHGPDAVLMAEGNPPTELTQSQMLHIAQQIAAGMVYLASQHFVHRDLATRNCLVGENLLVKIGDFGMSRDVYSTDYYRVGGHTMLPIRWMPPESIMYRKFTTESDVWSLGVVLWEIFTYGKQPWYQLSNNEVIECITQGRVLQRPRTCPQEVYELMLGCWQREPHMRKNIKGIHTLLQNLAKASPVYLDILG
T1 sequence (P04629 whole entry): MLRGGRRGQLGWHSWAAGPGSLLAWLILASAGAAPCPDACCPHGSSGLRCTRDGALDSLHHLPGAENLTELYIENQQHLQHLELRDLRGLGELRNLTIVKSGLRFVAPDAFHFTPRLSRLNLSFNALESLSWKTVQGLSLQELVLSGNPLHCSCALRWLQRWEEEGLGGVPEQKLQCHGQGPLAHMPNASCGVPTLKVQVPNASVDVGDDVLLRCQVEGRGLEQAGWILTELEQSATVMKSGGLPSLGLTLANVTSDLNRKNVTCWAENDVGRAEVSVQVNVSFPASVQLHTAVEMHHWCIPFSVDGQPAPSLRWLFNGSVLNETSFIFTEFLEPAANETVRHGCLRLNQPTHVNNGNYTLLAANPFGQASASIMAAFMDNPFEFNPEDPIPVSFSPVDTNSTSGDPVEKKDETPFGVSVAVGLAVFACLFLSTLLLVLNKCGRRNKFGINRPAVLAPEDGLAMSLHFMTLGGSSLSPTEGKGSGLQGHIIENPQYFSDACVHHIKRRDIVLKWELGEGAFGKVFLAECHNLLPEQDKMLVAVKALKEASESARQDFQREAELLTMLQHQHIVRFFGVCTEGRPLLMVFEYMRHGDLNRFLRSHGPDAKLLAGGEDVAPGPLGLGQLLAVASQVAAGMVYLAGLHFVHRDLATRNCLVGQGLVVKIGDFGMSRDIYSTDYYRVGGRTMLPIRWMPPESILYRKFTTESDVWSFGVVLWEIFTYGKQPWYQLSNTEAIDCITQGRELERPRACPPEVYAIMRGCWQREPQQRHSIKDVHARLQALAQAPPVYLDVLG
Description for physchem: Kinetic solubility of compound

| IC50 [1] | IC50 [2] | IC50 [3] | IC50 [4] | IC50 [5] | half-life (in vitro [6]) | half-life (in vitro [7]) | Papp A→B (in vitro [8]) | Papp B→A (in vitro [9]) | solubility kinetic (physchem) | Ki [10] | Ki [11] | SMILES |
| --- | --- | --- | --- | --- | --- | --- | --- | --- | --- | --- | --- | --- |
| 94 nM | 76 nM | – | – | – | – | – | – | – | – | – | – | O=C(Nc1ccc(N2CCOCC2)cc1N1CCOCC1)c1cccc(Oc2ccccc2)c1 |
| – | – | 102 nM | 7500 nM | > 20000 nM | 2 h | 2 h | 4.8 ×10⁻⁶ cm/s | 6.4 ×10⁻⁶ cm/s | 3.5 µM (≈ 1.67 µg/mL) | – | – | COc1ccc(-n2ncc3c(=O)n(CC(=O)Nc4cc(C(F)(F)F)ccc4Cl)cnc32)cc1 |
| – | – | 47.1 nM | > 20000 nM | > 20000 nM | 2 h | 2 h | – | – | 15.9 µM (≈ 7.27 µg/mL) | – | – | NC(=O)c1ccc(-c2nnn(CC(=O)Nc3cc(C(F)(F)F)ccc3-n3cncn3)n2)cc1 |
| 21 nM | 45 nM | 5.2 nM | 170 nM | 15900 nM | 1.35 h | 0.267 h | 4.1 ×10⁻⁶ cm/s | 7.6 ×10⁻⁶ cm/s | 12.7 µM (≈ 5.52 µg/mL) | 1 nM | 0.4 nM | O=C(Nc1ccc(N2CCOCC2)cc1N1CCOCC1)c1cnn(-c2ccccc2)n1 |
| > 10000 nM | > 10000 nM | 178 nM | > 20000 nM | > 20000 nM | 1.25 h | 0.933 h | – | – | 1.3 µM (≈ 0.589 µg/mL) | – | – | COc1ccc(Cl)cc1NC(=O)Nc1ccc2nc(NC(=O)c3ccccc3)sc2c1 |
